This assay concerns the target T1, human PKCθ full length enzyme (Homo sapiens, UniProt Q04759).
T1 construct: human PKCθ full length enzyme (Panvera Catalog No. P2996); purchased Panvera P2996
Put plainly: PKCθ IMAP Assay. Particulars: average value when one or more samples were tested; ATP 6 uM, PKCθ 1 nM. Type of assay: biochemical. The procedure: The materials used include the following: human PKCθ full length enzyme (Panvera Catalog No. P2996); substrate peptide: 5FAM-[…]-OH (Molecular Devices, RP7032); ATP (Sigma Cat # A2383); DTT (Pierce, 20291); 5× kinase reaction buffer (Molecular Devices, R7209); 5× binding buffer A (Molecular Devices, R7282), 5× binding buffer B (Molecular Devices, R7209); IMAP Beads (Molecular Devices, R7284); and 384-well plates (Corning Costar, 3710).
The reaction buffer was prepared by diluting the 5× stock reaction buffer and adding DTT to obtain a concentration of 3.0 mM. The binding buffer was prepared by diluting the 5× binding buffer A. A master mix solution was prepared using a 90% dilution of the reaction buffer containing 2×ATP (12 uM) and 2× peptide ([…]). […] The final concentration of compound was 2× and 10% DMSO. DMSO was added to the rest of the master mix to increase the concentration to 10%. 10 ul of the master mix containing 10% DMSO was added to the rest of the wells on the plate except the 2nd column. 20 ul was transferred from the first column to the 2nd column. The compounds were serially diluted in 2:1 ratio starting from the 2nd column. A 2× (2 nM) PKCθ solution was made in the reaction buffer. 10 ul of the PKCθ solution was added to every well to achieve these final concentrations: PKCθ—1 nM; ATP—6 uM; peptide—100 nM; DMSO—5%. Samples were incubated for 25 minutes at room temperature. The binding reagent was prepared by diluting the beads in 1× binding buffer to 800:1. 50 ul of the binding reagent was added to every well and incubated for 20 minutes. FP was measured using Envision2100 (PerkinElmer Life Sciences). Wells with no ATPs and wells with no enzymes were used as controls.
T1 sequence (Q04759 whole entry): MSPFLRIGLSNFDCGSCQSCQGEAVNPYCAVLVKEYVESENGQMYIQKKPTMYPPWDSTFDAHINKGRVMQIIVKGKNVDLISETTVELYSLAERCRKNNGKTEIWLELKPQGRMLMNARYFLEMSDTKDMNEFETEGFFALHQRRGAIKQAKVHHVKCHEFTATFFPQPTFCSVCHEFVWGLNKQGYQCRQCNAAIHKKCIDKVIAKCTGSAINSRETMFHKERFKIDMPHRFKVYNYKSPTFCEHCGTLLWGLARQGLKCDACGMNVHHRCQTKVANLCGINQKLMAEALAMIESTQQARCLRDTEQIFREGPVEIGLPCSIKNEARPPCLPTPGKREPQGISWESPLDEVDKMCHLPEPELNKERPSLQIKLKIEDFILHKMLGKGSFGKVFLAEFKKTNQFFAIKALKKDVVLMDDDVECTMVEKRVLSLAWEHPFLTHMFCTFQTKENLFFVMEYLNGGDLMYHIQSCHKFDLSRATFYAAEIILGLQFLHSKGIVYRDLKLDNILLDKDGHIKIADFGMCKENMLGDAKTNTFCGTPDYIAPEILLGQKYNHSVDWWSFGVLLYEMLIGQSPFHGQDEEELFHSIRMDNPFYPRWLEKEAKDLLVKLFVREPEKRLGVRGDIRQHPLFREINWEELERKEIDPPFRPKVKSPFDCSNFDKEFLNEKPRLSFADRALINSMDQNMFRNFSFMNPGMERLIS
In general, IC50 refers to the point on the concentration scale where inhibition reaches its midpoint. Read a high IC50 as lower potency. In turn, `N#Cc1cnc2sc(-c3cccc(CN4CCN(Cc5ccncc5)CC4)c3)cc2c1Nc1ccc2[nH]ccc2c1` [Compound 169, 4-(1H-indol-5-ylamino)-2-(3-{[4-(pyridin-4-ylmethyl)piperazin-1-yl]methyl}phenyl)thieno[2,3-b]pyridine-5-carbonitrile] gave a concentration for half-maximal inhibition (IC50) of 840 nM.

Regarding `N#Cc1cnc2sc(-c3cccc(CNCCN4CCOCC4)c3)cc2c1Nc1ccc2[nH]ccc2c1` [Compound 170, 4-(1H-indol-5-ylamino)-2-(3-{[(2-morpholin-4-ylethyl)amino]methyl}phenyl)thieno[2,3-b]pyridine-5-carbonitrile], it took 430 nM to reach half-maximal inhibition (IC50).

In turn, `N#Cc1cnc2sc(-c3cccc(CN4CC[C@H](O)C4)c3)cc2c1Nc1ccc2[nH]ccc2c1` [Compound 171, 2-(3-{[(3S)-3-hydroxypyrrolidin-1-yl]methyl}phenyl)-4-(1H-indol-5-ylamino)thieno[2,3-b]pyridine-5-carbonitrile] registered an IC50 of 110 nM.

As to `N#Cc1cnc2sc(-c3cccc(CN4CC[C@@H](O)C4)c3)cc2c1Nc1ccc2[nH]ccc2c1` [Compound 172, 2-(3-{[(3R)-3-hydroxypyrrolidin-1-yl]methyl}phenyl)-4-(1H-indol-5-ylamino)thieno[2,3-b]pyridine-5-carbonitrile], half-maximal inhibition (IC50) was put at 69 nM.

For `N#Cc1cnc2sc(-c3cccc(CN4CCCC(CO)C4)c3)cc2c1Nc1ccc2[nH]ccc2c1` (stereo not drawn) [Compound 173, 2-(3-{[3-(hydroxymethyl)piperidin-1-yl]methyl}phenyl)-4-(1H-indol-5-ylamino)thieno[2,3-b]pyridine-5-carbonitrile], the midpoint of inhibition, the IC50, lay at 130 nM.

`N#Cc1cnc2sc(-c3cccc(CN4CCC(CO)CC4)c3)cc2c1Nc1ccc2[nH]ccc2c1` [Compound 174, 2-(3-{[4-(hydroxymethyl)piperidin-1-yl]methyl}phenyl)-4-(1H-indol-5-ylamino)thieno[2,3-b]pyridine-5-carbonitrile] registered an IC50 of 240 nM.

Compound `N#Cc1cnc2sc(-c3cccc(CN4CCN(CCn5ccnc5)CC4)c3)cc2c1Nc1ccc2[nH]ccc2c1` [Compound 175, 2-[3-({4-[2-(1H-imidazol-1-yl)ethyl]piperazin-1-yl}methyl)phenyl]-4-(1H-indol-5-ylamino)thieno[2,3-b]pyridine-5-carbonitrile] returned an IC50 of 280 nM.

`N#Cc1cnc2sc(-c3cccc(CN4CCC(O)CC4)c3)cc2c1Nc1ccc2[nH]ccc2c1` [Compound 176, 2-{3-[(4-hydroxypiperidin-1-yl)methyl]phenyl}-4-(1H-indol-5-ylamino) thieno[2,3-b]pyridine-5-carbonitrile] displayed a half-inhibitory concentration (IC50) of 170 nM.

`N#Cc1cnc2sc(-c3cccc(CN4CCC(CCO)CC4)c3)cc2c1Nc1ccc2[nH]ccc2c1` [Compound 177, 2-(3-{[4-(2-hydroxyethyl)piperidin-1-yl]methyl}phenyl)-4-(1H-indol-5-ylamino)thieno[2,3-b]pyridine-5-carbonitrile] registered an IC50 of 170 nM. This counts as sub-micromolar.

In turn, `COCCN1CCN(Cc2cccc(-c3cc4c(Nc5ccc6[nH]ccc6c5)c(C#N)cnc4s3)c2)CC1` [Compound 178, 4-(1H-indol-5-ylamino)-2-(3-{[4-(2-methoxyethyl)piperazin-1-yl]methyl}phenyl)thieno[2,3-b]pyridine-5-carbonitrile] registered an IC50 of 300 nM.

Turning to `N#Cc1cnc2sc(-c3cccc(CNCC4CCCO4)c3)cc2c1Nc1ccc2[nH]ccc2c1` (stereo not drawn) [Compound 179, 4-(1H-indol-5-ylamino)-2-(3-{[(tetrahydrofuran-2-ylmethyl)amino]methyl}phenyl) thieno[2,3-b] pyridine-5-carbonitrile], the IC50 was 150 nM. Compared with the last compound, the IC50 is about 2-fold lower.

`N#Cc1cnc2sc(-c3cccc(CNCCCN4CCOCC4)c3)cc2c1Nc1ccc2[nH]ccc2c1` [Compound 180, 4-(1H-indol-5-ylamino)-2-(3-{[(3-morpholin-4-ylpropyl)amino]methyl}phenyl)thieno[2,3-b]pyridine-5-carbonitrile] yielded an IC50 of 110 nM. The IC50 values of the last two compounds are within 1.5-fold of each other.

Source of the values: patent US20070082880A1 (priority 2005, published 2007).
